In the supplement of paper PMC10307832:

What was measured:
Assay in all cases: relative viability (nuclei count vs DMSO), 5 days (fraction); higher = more cells survive
QS11 + Luminespib = compound: C1CC2=C(C1)C=C(C=C2)OC3=NC(=C4C(=N3)N(C=N4)CC5=CC=C(C=C5)C6=CC=CC=C6)N[C@@H](CC7=CC=CC=C7)CO [QS11] + CCNC(=O)c1noc(-c2cc(C(C)C)c(O)cc2O)c1-c1ccc(CN2CCOCC2)cc1 [Luminespib] (partner 0.01 µM)
In short: (§1)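 Relative viability divides the nuclei count in treated wells by that in vehicle wells. Lung cancer cell lines were seeded in 1536-well plates, dosed by pin tool the next day, and fixed and stained after 5 days in one step with final 0.05% Triton X-100, 1% formaldehyde and 1 ug/ml Hoechst. Dosing was a single drug or a fixed anchor-drug dose plus five library-drug doses (not always all listed) in √10 steps, and values are medians of duplicate plates imaged at 4×.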

QS11 + Pictilisib = compound: C1CC2=C(C1)C=C(C=C2)OC3=NC(=C4C(=N3)N(C=N4)CC5=CC=C(C=C5)C6=CC=CC=C6)N[C@@H](CC7=CC=CC=C7)CO [QS11] + CS(=O)(=O)N1CCN(Cc2cc3nc(-c4cccc5[nH]ncc45)nc(N4CCOCC4)c3s2)CC1 [Pictilisib] (partner 1 µM)
In short: as §1

QS11 + Bortezomib = compound: C1CC2=C(C1)C=C(C=C2)OC3=NC(=C4C(=N3)N(C=N4)CC5=CC=C(C=C5)C6=CC=CC=C6)N[C@@H](CC7=CC=CC=C7)CO [QS11] + CC(C)C[C@H](NC(=O)[C@H](Cc1ccccc1)NC(=O)c1cnccn1)B(O)O [Bortezomib] (partner 0.002 µM)
In short: as §1

[1] = compound: C[As](C)SC[C@H](NC(=O)CC[C@H](N)C(=O)O)C(=O)NCC(=O)O [Darinaparsin] + CC(=O)Nc1cccc(-n2c(=O)n(C3CC3)c(=O)c3c(Nc4ccc(I)cc4F)n(C)c(=O)c(C)c32)c1 [Trametinib] (partner 0.02 µM)
In short: as §1

Row | Cell Line | relative viability (QS11 + Luminespib; first compound 0.08 µM) | relative viability (QS11 + Luminespib; first compound 0.253 µM) | relative viability (QS11 + Luminespib; first compound 0.8 µM) | relative viability (QS11 + Luminespib; first compound 2.53 µM) | relative viability (QS11 + Luminespib; first compound 8 µM) | relative viability (QS11 + Pictilisib; first compound 0.08 µM) | relative viability (QS11 + Pictilisib; first compound 0.253 µM) | relative viability (QS11 + Pictilisib; first compound 0.8 µM) | relative viability (QS11 + Pictilisib; first compound 2.53 µM) | relative viability (QS11 + Pictilisib; first compound 8 µM) | relative viability (QS11 + Bortezomib; first compound 0.08 µM) | relative viability (QS11 + Bortezomib; first compound 0.253 µM) | relative viability (QS11 + Bortezomib; first compound 0.8 µM) | relative viability (QS11 + Bortezomib; first compound 2.53 µM) | relative viability (QS11 + Bortezomib; first compound 8 µM) | relative viability ([1]; first compound 0.08 µM) | relative viability ([1]; first compound 0.8 µM) | relative viability ([1]; first compound 2.53 µM) | relative viability ([1]; first compound 8 µM)
1 | HCC-44 | 1.08 | 1.18 | 0.805 | 0.937 | 1.24 | 0.804 | 0.432 | 0.565 | 0.406 | 0.431 | 0.885 | 0.76 | 0.681 | 0.766 | 0.697 | 1.11 | 1.2 | 0.942 | 1.1
2 | HCC-78 |  |  |  |  |  | 0.206 | 0.185 | 0.206 | 0.222 | 0.29 | 0.478 | 0.484 | 0.457 | 0.486 | 0.544 | 0.823 | 0.673 | 0.879 | 1.24
3 | HCC-366 |  |  |  |  |  | 0.138 | 0.133 |  | 0.202 | 0.0869 | 1.28 | 0.688 |  | 0.808 | 0.318 | 0.393 |  | 0.336 | 0.378
4 | HCC-827 | 0.587 | 0.508 | 0.597 | 0.694 | 0.675 | 0.881 | 1.03 | 0.953 | 1.13 | 0.95 | 1.06 | 1.09 | 0.937 | 0.962 | 1.04 | 0.578 | 0.502 | 0.566 | 0.508
5 | HOP-62 | 0.816 | 1.03 | 0.828 | 0.942 | 0.934 | 0.822 | 0.688 | 0.738 | 0.514 | 0.435 | 0.718 | 1.01 | 0.728 | 0.594 | 0.652 | 0.401 | 0.385 | 0.316 | 0.428
6 | IA-LM |  |  |  |  |  | 0.387 | 0.343 |  | 0.257 | 0.354 | 0.978 | 0.856 | 0.677 | 0.665 | 0.328 |  |  |  | 
7 | LK-2 | 0.164 | 0.229 | 0.178 | 0.172 | 0.146 | 0.605 | 0.698 | 0.537 | 0.547 | 0.602 |  |  |  |  |  | 0.936 | 0.61 | 0.847 | 0.878
8 | NCI-H358 | 0.435 | 0.457 | 0.479 | 0.414 | 0.444 | 0.338 | 0.315 | 0.387 | 0.564 | 0.553 |  |  |  |  |  | 0.112 | 0.129 | 0.134 | 0.145
9 | NCI-H522 | 1.01 | 1.35 | 0.945 | 0.98 | 1.17 |  |  |  |  |  |  |  |  |  |  | 0.704 | 0.888 | 0.682 | 0.816
10 | NCI-H1299 |  |  |  |  |  | 0.725 | 0.791 | 0.648 | 0.736 | 0.567 | 1.03 | 1.06 | 0.915 | 0.969 | 0.841 |  |  |  | 
11 | NCI-H1395 | 0.795 | 0.549 | 0.762 | 0.843 | 0.819 |  | 0.614 | 0.772 | 0.645 | 0.619 |  |  |  |  |  | 1.24 | 0.954 | 0.957 | 0.94
12 | NCI-H1563 | 0.59 | 0.541 | 0.513 | 0.532 | 0.452 | 0.718 | 0.703 | 0.68 | 0.586 | 0.617 | 0.822 | 0.825 | 0.853 | 0.769 | 0.722 |  |  |  | 
13 | NCI-H1623 | 0.529 | 0.705 | 0.486 | 0.479 | 0.503 |  |  |  |  |  |  |  |  |  |  |  |  |  | 
14 | NCI-H1648 |  |  |  |  |  |  |  |  |  |  |  |  |  |  |  |  | 0.445 |  | 0.408
15 | NCI-H1703 |  |  |  |  |  | 0.281 | 0.242 | 0.264 | 0.253 | 0.344 | 0.323 | 0.376 | 0.254 | 0.236 | 0.203 |  |  |  | 
16 | NCI-H1793 | 0.137 | 0.177 | 0.171 | 0.189 | 0.158 | 0.259 | 0.329 | 0.356 | 0.309 | 0.31 |  |  |  |  |  | 0.427 | 0.482 |  | 0.526
17 | NCI-H1944 | 0.702 | 0.864 |  | 0.557 | 0.543 | 0.331 | 0.346 |  | 0.353 | 0.39 |  |  |  |  |  | 0.404 | 0.401 | 0.371 | 0.408
18 | NCI-H2170 | 0.603 | 0.646 | 0.766 | 0.806 | 0.665 | 0.326 | 0.356 | 0.327 | 0.276 | 0.263 |  |  |  |  |  | 1.17 | 0.955 | 0.926 | 1.18
19 | NCI-H2342 | 0.787 | 0.754 | 0.721 | 0.697 | 0.746 |  |  |  |  |  |  |  |  |  |  | 0.966 | 0.843 | 0.789 | 0.73
20 | SK-MES-1 | 0.553 | 0.927 | 0.685 | 0.883 | 0.823 | 0.379 | 0.315 | 0.381 | 0.306 | 0.311 |  |  |  |  |  | 0.558 | 0.521 | 0.551 | 0.61
21 | SW 900 | 0.18 | 0.197 | 0.166 | 0.17 | 0.178 |  |  |  |  |  |  |  |  |  |  | 0.73 |  | 0.813 | 0.985
